Results as given in paper PMC8341910, “Structural and biophysical insights into the mode of covalent binding of rationally designed potent BMX inhibitors” (RSC Chemical Biology, 2020).
Values joined by “and” are separate entries in the source; they are usually repeats but may differ in a detail not shown here. Equal entries are not always repeated.

Biological target: T1, BMX (Homo sapiens, UniProt P51813)
T1 sequence (P51813 1-675): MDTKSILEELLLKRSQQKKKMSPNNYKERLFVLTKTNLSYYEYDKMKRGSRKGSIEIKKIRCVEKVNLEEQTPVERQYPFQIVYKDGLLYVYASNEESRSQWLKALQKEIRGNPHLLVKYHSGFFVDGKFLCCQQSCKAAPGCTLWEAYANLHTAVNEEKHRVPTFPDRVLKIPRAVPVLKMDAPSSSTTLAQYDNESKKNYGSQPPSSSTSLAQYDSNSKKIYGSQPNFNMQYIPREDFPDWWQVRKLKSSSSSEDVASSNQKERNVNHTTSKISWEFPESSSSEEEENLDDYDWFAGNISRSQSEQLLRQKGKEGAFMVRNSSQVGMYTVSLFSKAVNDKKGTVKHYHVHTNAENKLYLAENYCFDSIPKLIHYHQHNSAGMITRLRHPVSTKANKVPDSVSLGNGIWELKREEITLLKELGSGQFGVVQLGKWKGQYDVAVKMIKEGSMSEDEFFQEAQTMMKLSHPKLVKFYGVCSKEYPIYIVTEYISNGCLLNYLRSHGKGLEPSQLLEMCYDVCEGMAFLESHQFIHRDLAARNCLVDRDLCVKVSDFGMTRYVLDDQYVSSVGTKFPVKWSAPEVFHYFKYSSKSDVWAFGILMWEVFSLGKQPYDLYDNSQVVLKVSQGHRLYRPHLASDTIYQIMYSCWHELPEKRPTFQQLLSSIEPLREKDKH
Test: Kinetic characterization with ADP-Glo kinase assay
Format: biochemical
Set-up: purchased Promega Corporation (USA) V4512
Conditions: duplicate, mean ± S.D.
From the text: The inactivation of BMX occurs in a two-step process that is governed by two parameters: the affinity of the initial non-covalent binding, KI, and the rate of the subsequent covalent bond-forming reaction with the thiol of the cysteine residue, kinact. […]. […] Thus, taking into account that all the analogues have the same Michael acceptor moiety, the enhanced activity must be a result of the structural modifications introduced in the scaffold. […]
Kinetic characterization using an ADP-GLOTM kinase assay:
The BMX enzyme system (Catalog. V4512) and the ADP-GloTM kinase assay were purchased from Promega Corporation (USA). In each kinase reaction, the concentration of BMX was set to 4.5 ng/µL. The peptide substrate Poly (4:1 Glu, Tyr) and ATP concentrations were set to 0.25 mg/mL and 50 µM, respectively. BMX was pre-incubated with different inhibitor concentrations (10-fold serial dilutions, starting at 1 mM), over different time periods (2 - 60 min), before initiating the kinase reactions. Reactions were started by adding 2.5X Poly E4Y1/ATP mixture. The reactions were carried out in a 384-well plate, stopping all at the same time with the addition of 5 µL of ADP-GloTM reagent, to consume the remaining ATP within 40 min. Then, 10 µL of kinase detection reagent was added into the wells and incubated for 30 min to produce a luminescence signal. The signal was measured using an Infinite M200 […]
observed rate constants for inhibition (kobs), at different inhibitor concentrations, were determined from the slope of a semi-logarithmic plot of inhibition versus time, and re-plotted against inhibitor concentration (nM). The experimental values were fitted into a hyperbolic function using GraphPad Prism 8 ([…]), to obtain the KI, kinact, and kinact/KI, as described previously.12 […]
(Thermo Fisher Scientific) using gold-coated glass needles. […]

## C=CC(=O)Nc1cc(-n2c(=O)ccc3cnc4cc(-c5ccc(NS(C)(=O)=O)cc5)ccc4c32)ccc1C [JS24]
  k inact: 0.335 min⁻¹ and 0.335 ± 0.001 min⁻¹
